Reference: paper PMC10337664 (Journal of Chemical Information and Modeling, 2023)

Molecular target: DCAF1 (DDB1-Cul4 associated factor 1), WDR domain (Homo sapiens, UniProt Q9Y4B6)
Experiment: […] Å cocrystal structure
Format: binding

Sequence of DCAF1 (DDB1-Cul4 associated factor 1), WDR domain (Q9Y4B6 1038-1400): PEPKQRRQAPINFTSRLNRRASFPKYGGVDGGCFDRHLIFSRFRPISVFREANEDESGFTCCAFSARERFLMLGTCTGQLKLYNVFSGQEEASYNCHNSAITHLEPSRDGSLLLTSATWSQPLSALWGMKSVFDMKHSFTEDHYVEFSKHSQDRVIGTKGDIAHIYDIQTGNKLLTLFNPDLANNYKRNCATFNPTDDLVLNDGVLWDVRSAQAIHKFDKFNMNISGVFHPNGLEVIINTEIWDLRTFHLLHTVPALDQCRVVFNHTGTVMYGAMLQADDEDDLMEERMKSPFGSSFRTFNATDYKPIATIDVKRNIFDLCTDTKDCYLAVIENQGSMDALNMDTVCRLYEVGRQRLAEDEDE

- Kd: ~70 µM
SMILES: Fc1cccc(N2CCCC(Nc3cc(N4CCOCC4)ncn3)C2)c1 (stereo not shown) [CYCA-117-70]
